Assay results from patent US20260356826A1, “SALTS OF AMINO QUINAZOLINE DERIVATIVES” (CHIESI FARMACEUTICI S.P.A., priority 2023, published 2026).
≈ marks a conversion by molar mass, not a printed value. Entries after “also recorded” stand apart in the source; their conditions may differ. Where a name gives a salt, the structure may show the parent alone.

Columns and labels:
P2X3 [1] = conditions: oral; cited from earlier work
[2] = local delivery; cited from earlier work
[3] = preclinical models; cited from earlier work
P2X3 [4] = conditions: disclosed in WO2020239951 A1; cited from earlier work
[5] = Dissolution in Fasted State Simulated Gastric Fluid (FaSSGF), manual experiment, 37 °C; assay type: physicochemical; conditions: for Solubility: 37 °C
Experimental: The dissolution in Fasted State Simulated Gastric Fluid (FaSSGF) of mesylate salt Form 2 of the compound A of Example 2 and esylate salt Form 1 of Example 6 in comparison with the free base Form A and with other salts was tested by means of manual experiment. The medium for simulated oral fluids was FaSSGF obtained from Biorelevant.com Ltd. The experiments were conducted for 60 minutes at 37 °C.
General preparation of salts: in a round-bottomed flask, 200 mg of compound A free base Form A according to Example 1 (0.52 mmol) were suspended in 5 ml of solvent and stirred at RT. Acetone was employed for bromide, ethanedisulfonate, malonate, sulfate, saccharinate, tosylate, orotate, besylate, hemisulfate, phosphate and tartrate salts; water was employed for chloride salt; ethyl formate was employed for maleate, oxalate, gentisicate, fumarate and mandelate salts; tetrahydrofuran was employed for camphorsulfonate and pamoate salts; isopropyl acetate was employed for 4-hydroxybenzoate and methanol for camphorate salt. The corresponding acid was added under stirring in equimolar amount (except for hemisulfate, added in 0.5 molar amount). After 1 hour the crystalline solid was isolated by filtration, washed with the corresponding solvent (2×1 ml) and dried under nitrogen for 2 hours.
The quantification of the dissolved amount was done by LC/UV system at different checkpoints up to 60 minutes. The saturation solution concentration was around 25-30 mg/ml. […] In a second experiment, the quantification was repeated with saturation solution concentration 170 mg/ml for the mesylate salt Form 2 and 100 mg/ml for the esylate salt Form 1. The results are reported in tables 8A, 8B, 8C, 8D and FIG. 28.

[6] = Comparative stability at 40 °C and 75% RH at open conditions (UPLC/UV and XRPD); assay type: physicochemical; conditions: 40 °C/75% RH open
Experimental: In a second experiment, approximately 100 mg of compound A mesylate salt Form 2 according to Example 2, free base Form A according to Example 1 and esylate salt Form 1 according to Example 6 were stored in three open amber glass vials covered with filter paper to simulate open conditions. The samples were stored in a stability chamber at 75% RH and 40 °C to compare their stability. At the time points 0, 28, 56, 84 days the corresponding samples were removed from the stability chambers. After conditioning at RT, the samples were analyzed by UPLC/UV and XRPD.

[7] = Two-sector dissolution study (FaSSGF then FaSSIF), parachute effect; assay type: physicochemical; conditions: third experiment
Experimental: The dissolution behaviour of mesylate salt Form 2 of compound A was studied in a two-sector model in comparison with free base Form A to evaluate a possible “spring-parachute effect”.
The parachute effect is observable in two-sector dissolution studies. A test compound is incubated with FaSSGF and its concentration is monitored over time. FaSSIF is then added to the solution whilst continuing the monitoring. The period of time in which the test compound remains in solution without or before precipitating refers to the supersaturation time and represents the parachute effect.
The experiment was conducted using DISS Profiler 6 Channel Pion. The free base Form A and mesylate salt Form 2 of compound A were each incubated in 8 ml of FaSSGF (pH 1.6) for 20 minutes at the concentration of 350 mg/250 ml. 16 ml of FaSSIF concentrated 1.5× (pH 6.5) was added with an incubation time of 180 minutes. The resulting target pH should be approximately 5-6. The experiment was conducted at 37 °C. The entire dissolution profile was monitored until the end of the experiment to evaluate a possible parachute effect, its duration and to evaluate the maximum solubility reached after the addition of FaSSIF.
A second experiment was conducted, with an additional step of adjusting the pH to 6.5 after FaSSIF addition. Both free base Form A and mesylate salt Form 2 of compound A were tested.
A third experiment was conducted on esylate salt Form 1 of compound A, using the same protocol of the second experiment, with free base Form A and mesylate salt Form 2 of compound A as controls. The experiment was aimed at evaluating comparatively a possible parachute effect of the esylate salt and its duration. Precipitation of the free base was observed after roughly 20 minutes, while precipitation of the esylate salt and mesylate salt were observed after 30 and 40 minutes respectively.

[8] = Dynamic vapour sorption (DVS), hygroscopicity; assay type: physicochemical; conditions: between 20% and 80% RH
Experimental: Moisture sorption/desorption data were collected on a TA Instruments Vapor Sorption Analyzer Q5000SA.
First step: sorption data was collected in the range 40% to 90% relative humidity (RH).
Second Step: desorption, sorption and desorption data were collected over a range of 0% to 90% RH at 10% RH intervals under a nitrogen purge. Samples were not dried prior to analysis. Equilibrium criteria used for analysis were less than 0.100% weight change in 20 minutes, with a maximum equilibration time of 1 hour if the weight criterion was not met. Data were not corrected for the initial moisture content of the samples. NaBr was used as humidity verification.
Moisture sorption/desorption data were also collected on a ProUmid SnS 23 equipped with a 23 autosampler following Method 1.
In the first step sorption data was collected in the range 0% to 90% RH. Samples were not dried prior to analysis.
In the second Step desorption, sorption and desorption data were collected over a range of 0% to 90% (RH) at 10% RH intervals under a nitrogen purge. Data were not corrected for the initial moisture content of the samples.

[9] = second experiment (saturation conc. 170 mg/ml mesylate, 100 mg/ml esylate), 0 min
[10] = first experiment (saturation conc. around 25-30 mg/ml), 5 min

Structure (SMILES) | Solubility [5, 9] [µg/mL] | Solubility ([5]; second experiment, 60 min) [µg/mL] | Solubility ([5]; second experiment, 15 min) [µg/mL] | Solubility ([5]; second experiment, 30 min) [µg/mL] | further results
COc1cc(C(C)C)c(Oc2cnc(N)nc2N)cc1S(N)(=O)=O [AF-219] |  |  |  |  | Hypersensitivity of the cough reflex (P2X3 [1]): dramatically reduced
Nc1ncnc2c1ncn2[C@@H]1O[C@H](COP(=O)(O)OP(=O)(O)OP(=O)(O)O)[C@@H](O)[C@H]1O [ATP, Adenosine 5-TriPhosphate] |  |  |  |  | Cough and bronchospasm [2]: initiates cough and bronchospasm; Citric acid-evoked and histamine-evoked cough [3]: enhances citric acid-evoked and histamine-evoked cough
COc1cc(-c2ccc(F)cn2)cc2c(N[C@H](C)c3noc(C)n3)ncnc12 [Compound A, (R)-6-(5-fluoropyridin-2-yl)-8-methoxy-N-(1-(5-methyl-1,2,4-oxadiazol-3-yl)ethyl)quinazolin-4-amine] |  |  |  |  | P2X3 inhibition (P2X3 [4]): potent and selective P2X3 inhibitor
COc1cc(-c2ccc(F)cn2)cc2c(N[C@H](C)c3noc(C)n3)ncnc12 [besylate] | 1010 | 21840 |  |  | 
COc1cc(-c2ccc(F)cn2)cc2c(N[C@H](C)c3noc(C)n3)ncnc12 [bromide] | 720 | 2880 | 2520 |  | 
COc1cc(-c2ccc(F)cn2)cc2c(N[C@H](C)c3noc(C)n3)ncnc12 [camphorsulfonate] | 510 | 13450 | 10510 | 11840 | 
COc1cc(-c2ccc(F)cn2)cc2c(N[C@H](C)c3noc(C)n3)ncnc12 [chloride] | 690 | 10870 | 8630 |  | 
COc1cc(-c2ccc(F)cn2)cc2c(N[C@H](C)c3noc(C)n3)ncnc12 [esylate salt Form 1, (R)-6-(5-fluoropyridin-2-yl)-8-methoxy-N-(1-(5-methyl-1,2,4-oxadiazol-3-yl)ethyl)quinazolin-4-amine] |  |  |  |  | Stability ([6]; 84 days): surprisingly good stability during stressed storage; % area main peak (LC/UV) ([6]; 0 days): 99.9 % area; Solubility ([5]; first experiment (saturation conc. around 25-30 mg/ml), 5 min, listed as esylate Form 1, 5 min): 24270 µg/mL; Solubility ([5]; first experiment, 10 min, listed as esylate Form 1, 10 min): 24740 µg/mL; Solubility ([5]; first experiment, 20 min, listed as esylate Form 1, 20 min): 24870 µg/mL; Solubility ([5]; first experiment, 40 min, listed as esylate Form 1, 40 min): 24760 µg/mL; Solubility ([5]; first experiment, 60 min): ≥ 25000 µg/mL; Solubility ([5]; first experiment, 60 min, listed as esylate Form 1, 60 min): 24590 µg/mL; Solubility ([5]; second experiment, 30 min, listed as esylate Form 1, 30 min): 61300 µg/mL; Solubility ([5]; second experiment, 60 min, listed as esylate Form 1, 60 min): 68460 µg/mL; Solubility compared to free base Form A ([5]; 60 minutes): consistently higher solubility than the free base Form A during the 60 minutes time; Dissolution ([5]; first experiment, saturation conc. around 25-30 mg/ml): completely dissolved; Duration of the parachute effect compared to free base Form A [7]: longer duration of the parachute effect; Time of precipitation ([7]; protocol of the second experiment): 30 min
COc1cc(-c2ccc(F)cn2)cc2c(N[C@H](C)c3noc(C)n3)ncnc12 [ethanedisulfonate] | 490 | 1060 |  |  | 
COc1cc(-c2ccc(F)cn2)cc2c(N[C@H](C)c3noc(C)n3)ncnc12 [fumarate] | 550 | 5890 | 4980 | 5760 | Solubility [5, 10]: 3290 µg/mL; Solubility ([5]; first experiment, 10 min): 3360 µg/mL; Solubility ([5]; first experiment, 20 min): 3350 µg/mL; Solubility ([5]; first experiment, 40 min): 3610 µg/mL; Solubility ([5]; first experiment, 60 min): 3580 µg/mL
COc1cc(-c2ccc(F)cn2)cc2c(N[C@H](C)c3noc(C)n3)ncnc12 [mandelate] | 1280 (≈ 3370 µM) | 10990 (≈ 28900 µM) | 10880 (≈ 28600 µM) | 9300 (≈ 24400 µM) | 
COc1cc(-c2ccc(F)cn2)cc2c(N[C@H](C)c3noc(C)n3)ncnc12 [mesylate salt Form 6, (R)-6-(5-fluoropyridin-2-yl)-8-methoxy-N-(1-(5-methyl-1,2,4-oxadiazol-3-yl)ethyl)quinazolin-4-amine] |  |  |  |  | Hygroscopicity [8]: No hygroscopicity was noted; also recorded: substantially no hygroscopicity; Total water uptake [8]: 0.3%
COc1cc(-c2ccc(F)cn2)cc2c(N[C@H](C)c3noc(C)n3)ncnc12 [oxalate] | 1730 | 13870 | 10710 | 11700 | Solubility [5, 10]: 90 µg/mL; Solubility ([5]; first experiment, 10 min): 90 µg/mL; Solubility ([5]; first experiment, 20 min): 80 µg/mL; Solubility ([5]; first experiment, 40 min): 90 µg/mL; Solubility ([5]; first experiment, 60 min): 90 µg/mL
COc1cc(-c2ccc(F)cn2)cc2c(N[C@H](C)c3noc(C)n3)ncnc12 [pamoate] | 30 | 6520 | 4890 |  | 
COc1cc(-c2ccc(F)cn2)cc2c(N[C@H](C)c3noc(C)n3)ncnc12 [phosphate] | 210 | 14320 | 15210 | 14850 | 
COc1cc(-c2ccc(F)cn2)cc2c(N[C@H](C)c3noc(C)n3)ncnc12 [saccharinate] | 430 (≈ 1130 µM) | 830 (≈ 2180 µM) | 800 (≈ 2100 µM) | 870 (≈ 2290 µM) | Solubility [5, 10]: 900 µg/mL (≈ 2370 µM); Solubility ([5]; first experiment, 10 min): 1030 µg/mL (≈ 2710 µM); Solubility ([5]; first experiment, 20 min): 1090 µg/mL (≈ 2870 µM); Solubility ([5]; first experiment, 40 min): 1080 µg/mL (≈ 2840 µM); Solubility ([5]; first experiment, 60 min): 1020 µg/mL (≈ 2680 µM)
COc1cc(-c2ccc(F)cn2)cc2c(N[C@H](C)c3noc(C)n3)ncnc12 [tosylate] | 610 | 4970 | 4670 | 4860 | 
